Source: patent US20050096395A1, “Methods of treating attention deficit/hyperactivity disorder (adhd)” (priority 2002, published 2005)

Columns and labels:
[1] = system: spontaneously hypertensive rats (SHR); assay: delayed gratification response paradigm in animal model of AD/HD; type: in vivo, rat; details: 5, 10, 25 or 50 mg/kg over twenty-one days
Description: In this study, spontaneously hypertensive rats (SHR) are used as an animal model for AD/HD. The SHR animal model is described in Russell et al., 2000, Behavioral Brain Research, 117: 69-74; Russell, 2001, Metab. Brain Dis., 16: 143-149; and Sagvolden et al., 1992, Behav. Neural Biol., 58: 103-112. The study consists of two groups of rats: normal and SHR. Each group is further divided into two subgroups: placebo and milnacipran. […] The milnacipran is administered to the rats over a period of twenty-one days. The rats are from the normal and SHR groups are trained in the delayed gratification response paradigm as described in […] et al., 1996, Pharmacology and Biochemistry and Behavior, 54: 149-157. In this paradigm, rats learn to choose between five food pellets delivered after 30 seconds and one food pellet delivered after 5 seconds. Normal rats learn to choose the five food pellets delivered after 30 seconds at a higher frequency.

[2] = system: patients with AD/HD and comorbid tic disorder; assay: randomized, double-blind, placebo-controlled trial in patients with AD/HD and comorbid tic disorder; type: in vivo, human; details: patients 7-15 years; 1.5-2 mg/kg/day; after 8 weeks of treatment
From the text: This study is a randomized, double-blind, placebo-controlled trial of parallel groups. […] Before entry into the study, each patient undergoes a detailed clinical evaluation by a psychiatrist and/or a psychologist. The diagnosis of AD/HD and comorbid tic disorder is made on the basis of this interview. Entry criteria includes age between 7 and 15 years, a DSM-IV diagnosis of AD/HD (any type), a DSM-IV tic disorder (any type), and a score of ≧1.5 standard deviation units for age and gender on the 10-item Conners hyperactivity index (Goyette et al., 1978, J. Abnorm. Child Psychol., 6: 221-236) rated by a teacher or parent. Exclusion criteria includes evidence of major depression, generalized anxiety disorder, separation anxiety disorder, or psychotic symptoms. Children with moderate or more severe tic symptoms (Yale Global Tic Severity Scale [[…] et al., 1989, J Am Acad Child Adolesc Psychiatry, 28: 566-573] total tic score of>22) or significant obsessive-compulsive symptoms (Children's Yale Brown Obsessive Compulsive Scale [[…] et al., 1997, J Am Acad Child Adolesc Psychiatry, 36: 844-852] total score>15) are also excluded. Before entry into the study the patients are tapered off their current medication. The participants in the study are randomly divided into two groups-milnacipran group and placebo control group. Each group consists of 5 patients. […] The patients in the placebo group are administered a placebo for 8 weeks. The patient's course is followed at visits with a primary clinician, who is blind to the patient's study group, every 2 weeks. The AD/HD rating scale, Clinical Global Impression global improvement score, and Yale Global Tic Severity Scale are used to follow the outcome measures. […] Each symptom was scored by the child's teacher from 0 to 3 (0=never [or rarely], 1=sometimes, 2=often, and 3=very often). […] A score of much improved or very much improved, reflecting meaningful improvement in AD/HD symptoms both at school and at home, is counted as a positive response. […]

[3] = system: norepinephrine reuptake; details: cited from earlier work
[4] = system: rats described in McGrath et al., 2000; assay: animal model of tic disorder (McGrath et al., 2000); type: in vivo, rat; details: 5, 10, 25 or 50 mg/kg over twenty-one days, before vs after administration
Description: The rats are divided into two groups: placebo and milnacipran. […] The milnacipran is administered to the rats over a period of twenty-one days.

[5] = target: NMDA receptor; details: cited from earlier work

With `CCN(CC)C(=O)[C@]1(c2ccccc2)C[C@@H]1CN` (racemic) [milnacipran, cis-(±)-2-(aminomethyl)-N,N-diethyl-1-phenyl-yclopropanecarboxamide] the “time required by SHR rats to choose five food pellets delivered after 30 seconds at a higher frequency” value [1] was “reduced, approaching the amount of time required by the normal rats”, the “AD/HD Rating Scale” value [2] was “improvement” and the “Clinical Global Improvement Scale” value [2] was “improvement”. For the same compound, the “Yale Global Tic Severity Scale” value [2] was “improvement”, the IC50 [3] was […] and the “abnormal behavior such as climbing/leaping, gnawing, and other tic-like behaviors” value [4] was “reduces the abnormal behavior”. The IC50 [5] was ~6.3 µM.
